According to patent publication US7420033B2, “Composition of lactoferrin related peptides and uses thereof” (Agennix, Inc., priority 2004, dated 2008):
Where “and” joins values, the source holds several entries; their conditions need not be identical. Identical values can stand only once. Where no end group is shown, it is not given here.

Legend:
[1] = system: hind paw edema; test: Carrageenan mouse paw edema model of inflammation; assay type: in vivo, ICR derived mice; settings: PO once daily × 5
Method: Test substance LPF-35 at 5 mg/kg and reference agent Aspirin at 100 mg/kg were administered orally once daily for 5 consecutive days to groups of 8 ICR (4 male and 4 female) derived mice weighing 22±2 gms. One hour after 5th dose, right hind paw was injected with carrageenan (0.05 ml of 1% suspension intraplantar). The hind paw edema was measured 4 hours later. Convention: reduction of hind paw edema by 30 percent or more indicates significant acute anti-inflammatory activity. Each animal was fasted overnight before Carrageenan challenge.

[2] = system: heart allograft; test: Heart allograft survival model in rats; assay type: in vivo, rats (Wistar Furh recipients, Baffalo donors); settings: FK506 alone, 0.8 mg/kg oral gavage once daily days 0 to +14; n=10
Method: The activity of LPF-35 in combination with FK506 was compared with FK506 alone in a heart allograft survival model in rats. Wistar Furh (WF; RT1) recipients of heart allograft from Baffalo donors (BUF; RT1b) were administered oral LPF-35 (5 mg/kg) plus FK506 (0.8 mg/kg), FK506 alone or placebo. The results are presented as a mean±standard deviation (MST±SD). Significance between groups was calculated using Student T-test with p<0.05 considered as significant. In group # 1 control WF recipients of BUF heart allografts (n=5) were untreated and heart allografts were rejected in an acute fashion within 6.4±0.5 days. In group # 2 WF recipients of BUF heart allografts (n=10) were treated daily once (days 0 to +14) with 0.8 mg/kg FK506 delivered by oral gavage. This protocol was effective in prolonging the survival of heart allografts to a MST of 22.3±6.7 days (p=0.0002). […] In group # 3 WF recipients of BUF heart allografts (n=6) were treated daily once (days 0 to +14) with 0.8 mg/kg FK506 delivered by oral gavage in combination with LPF-35 daily for 14 days. This protocol was effective in prolonging the survival of heart allografts to a MST of 49.5±28 days (p=0.0077). […] An effect of reducing organ transplant rejection is indicative of beneficial effects in GVHD.

[3] = system: clinical bacterial isolates; test: Peptide MICs by NCCLS broth microdilution; assay type: cell-based; settings: geometric mean MIC; 742 clinical bacterial isolates representing 35 species
Method: The novel peptides described in this application have shown substantial anti-microbial activity. Peptide MICs were determined by the broth microdilution method recommended by the NCCLS (M7-A5). In each medium, the concentrations of peptide were serial two-fold dilutions ranging from 8192 to 8 μg/mL. Mueller-Hinton broth and Peptone broth were used throughout, using the following media: 1) 5rCAMHB, 2) CAMHB supplemented with 3% lysed horse blood, 3) Haemophilus test medium, 4) peptone broth at pH 7, 5) peptone broth at pH 7.5, 6) peptone broth supplemented with 25 μg/mL calcium and 12.5 μg/mL magnesium, 7) peptone broth supplemented with 1.5 g/L soluble starch. On each day of testing, colony counts were performed on the broth from the growth control well immediately after inoculation from two randomly selected isolates to assure appropriate inoculum density. A total of 742 clinical bacterial isolates representing 35 species were tested.

[4] = system: Ascaris suum antigen; test: Sheep model of allergic asthma; assay type: in vivo; settings: lung resistance and carbachol response, FIG. 5, FIG. 6
Method: Peptides LPF-32 and LPF-35 were both tested in an established sheep model of allergic asthma. […] Allergic sheep previously characterized as dual responders (displaying early and late phases of bronchoconstriction), were administered peptide followed by inhalation challenge with Ascaris suum antigen.
Baseline dose response curves to aerosolized carbachol were obtained in all sheep 1-3 days before the start of dosing. Sheep were dosed with peptide or placebo by nebulization or oral gavage in the inhaled and oral experiments respectively. The sensitized sheep were then challenged with Ascaris suum antigen to produce early and late airway responses, as measured by mean lung resistance (pulmonary flow resistance, RL). Mean lung resistance was measured using tracheal and pleural pressure catheters connected to a differential pressure transducer. […]
To assess airway responsiveness, cumulative dose response curves to carbachol were obtained, as measured by specific lung resistance, or SRL (SRL=RL * thoracic gas volume). […] Airway hypersensitivity (AH) was determined by calculating the cumulative carbachol dose that increased SRL by 400% over the post-saline value by interpolation from the dose response curve. […]

[5] = system: MIP3-α; test: MIP3-α expression in hepatocytes, ELISA; assay type: cell-based, human; settings: 0.04 and 0.2 mg/mL, supernatant at 2 h and 4 h; FIG. 9
From the text: Still further, it is envisioned that lactoferrin related peptides stimulate production of MIP-3alpha from hepatocytes. Lactoferrin is known to contribute to the defense systems of the body through its anti-microbial properties. […] The innate immune system is the ‘first line of defense’ of the body against hostile environments and comprise of a variety of effector and cellular mechanisms. This innate immune response is initially likely mediated by the ‘detection system’ of receptors known to be present on the surface of the gut epithelial cells, such as pattern recognition receptors, IL-1 receptor and general ‘scavenger’ receptors. These receptors recognize and respond to specific structural features of the presented molecules. As a result, various intracellular signaling pathways may be initiated (e.g., NFκB, Wnt, etc.) that result in the overall orchestration of the cellular response of the body to the prevailing biological situation (e.g., infection). RhLF and peptides derived from rhLF elicit a similar response of human hepatocytes in vitro in terms of producing an important chemokine—namely MIP-3-alpha. It is surmised that some general structural features that are responsible for the biological response to rhLF are retained in peptides that are structurally related to the parent molecule (rhLF).
MIP3-α has been associated with the stimulation of innate immune responses. […]

Molecule | MIC GeoMean [3] | further results
CC(=O)Oc1ccccc1C(=O)O [Aspirin] |  | Paw Volume LP ([1]; LP, average n=8): 12.38 ×0.01 ml; Paw Volume Diff. ([1]; RP minus LP): 5.00 ×0.01 ml; % Inhibition ([1]; hind paw edema vs vehicle): 32%; Paw Volume RP ([1]; right hind paw injected with carrageenan, 4 hours later, average n=8): 17.38 ×0.01 ml
C=CC[C@@H]1/C=C(\C)C[C@H](C)C[C@H](OC)[C@H]2O[C@@](O)(C(=O)C(=O)N3CCCC[C@H]3C(=O)O[C@H](/C(C)=C/[C@@H]3CC[C@@H](O)[C@H](OC)C3)[C@H](C)[C@@H](O)CC1=O)[C@H](C)C[C@@H]2OC [FK506] |  | survival of heart allografts, MST ± SD [2]: 22.3±6.7 days
RRRRRRSVQWAAVSQPIATEAFQWQRNMRKRRR [LPF-25] | 66 µg/mL | 
RRRRRRSVQWAAVSQPIATKAFQWQRNMRKRRR [LPF-36] | 24 µg/mL | 
RRRRRRSVQWQAVSQPEATKQFQWQRNMRKRRR [LPF-31] | 41 µg/mL | 
RRRRRRSVQWQAVSQPGATKQFQWQRNMRKRRR [LPF-32] | 25 µg/mL | late phase inflammation and airway hyperresponsiveness [4]: substantially inhibit
RRRRRRSVQWQAVSQPIATEQFQWQRNMRKRRR [LPF-24] | 43 µg/mL and 51 µg/mL | 
RRRRRRSVQWQAVSQPIATIQFQWQRNMRKRRR [LPF-35] | 15 µg/mL | expression of MIP3-α in Hepatocytes [5]: stimulates
RRRRRRSVQWQAVSQPIATKQFQWQRNMRKRRR [LPF-33] | 28 µg/mL | 
RRRRRRSVQWQAVSQPQATGQFQWQRNMRKRRR [LPF-34] | 32 µg/mL | 
